Here are results for two molecules from patent publication US12421500B2, “Hepato-biliary-pancreatic tissues and methods of making same” (CHILDREN'S HOSPITAL MEDICAL CENTER, priority 2018, dated 2025).

Experiment [1] deals with E9.0 PROX1::GFP reporter mouse embryo. Put plainly: E9.0 PROX1::GFP reporter mouse whole embryo culture with BMS493. Conditions: after 2 days, vs DMSO control, FIGS. 11A and 11B. The source says:
FIGS. 11A and 11B. PROX1 inhibition by BMS493 exposure with E9.0 PROX1::GFP reporter mouse embryo explant culture. […] Retinoic acid receptors antagonist BMS493 treated group was compared with control (adding DMSO) group. 11A. Bright field image and GFP fluorescent image for embryo after culture. 11B. The area of GFP expressing parts was quantified from GFP image in (a). Scale bar: 1 mm
(§1) In support, Applicant exposed the bAP organoids at D9 to various RA signaling agonists or antagonists. […] Lateral plate mesoderm population acts as an activator for RA signaling during the specification in vivo^22-24. To implicate the cellular source for RA in the model system, RA signaling related genes were assessed in the isolated epithelial and non-epithelial cell populations. […] Complementing this, exposing only the posterior gut spheroid, and not the anterior gut spheroid to BMS493 prior to fusion suppressed the protein-level induction of HHEX and PDX1 (FIG. 10). […] Taken together, HBP progenitor self-specification derived from posterior region in boundary organoid model system is regulated by RA signals, and may be supported by co-differentiating anterior non-epithelial, most likely mesenchymal, lineages.
The Rotator-type Bottle Culture System (Ikemoto Scientific Technology Co., Ltd) was used for whole embryo culture. […]

Another experiment deals with posterior gut spheroid. The experiment is described as follows: BMS493 pretreatment of anterior or posterior gut spheroids before fusion, HHEX and PDX1 immunostaining. The format is cell-based, human. Conditions: only posterior gut spheroid exposed prior to fusion; vs untreated control; FIG. 10.
Excerpt: FIG. 10. Abolishment of HHEX and PDX1 induction in posterior gut specific BMS493. BMS493 pretreated anterior or posterior gut spheroids were fused to induce HBP anlage formation. […] Scale bar: 200 μm
as §1
For whole mount immunohistochemical staining, spheroid and organoid were collected from Matrigel™ and removed remaining Matrigel™ by treating with Cell recovery solution at 4° C. for 30 min. The tissues were washed by PBS and were fixed in 4% PFA at 4° C. for overnight. […]

The next experiment has as its system bAP organoids. The experiment is described as follows: bAP organoids exposed to RA signaling agonists or antagonists, gene expression by qPCR. The format is cell-based, human. Conditions: bAP organoids exposed at D9; Day 11, three days culture; FIG. 2G. The procedure: FIG. 2A-2I. Self-emergence of hepato-biliary-pancreatic progenitors from boundary organoid without inductive factors. 2A. Generating PROX1-tdTomato reporter line by CRISPR-Cas9 gene editing system. 2B. PROX1-tdTomato expression in established PROX1 reporter iPSCs from Day 9 to Day 11. 2C. PROX1-tdTomato positive area in each organoid. AP, AA and PP combinations were evaluated. The tdTomato expression was confirmed in the cell membrane of boundary organoids in AP combination. 2D. Hepatic invagination in mouse liver primordium explant (Prox1::GFP) and human iPSC-derived boundary organoids (PROX1::m-tdTomato). 2E. The immunostaining of PROX1 in E8.75 mice embryo and boundary organoids at Day 13. 2F. Transcriptomic characterization of boundary organoids. Anterior, boundary, and posterior domains were dissected, separated, and applied for RNA sequencing. […] Heatmap was separated into 8 detailed groups (C1-C8) by unbiased hierarchical clustering. […] 2G. Gene expression of HHEX, PDX1, SOX2, and CDX2 at Day 11 with three days culture of retinoic acid, BMS493, R-75251, or WIN18446. 2H. […]
In support, Applicant exposed the bAP organoids at D9 to various RA signaling agonists or antagonists. […] To implicate the cellular source for RA in the model system, RA signaling related genes were assessed in the isolated epithelial and non-epithelial cell populations. […]

Experiment [2] concerns Cholecystokinin A Receptor (CCKAR) expressing organoids. Put plainly: CCK exposure of organoids: ductal response and amylase ELISA. The format is cell-based, human. An excerpt:
FIG. 3A-3O. Modeling human hepato-biliary-pancreatic organogenesis. 3A. Illustration of dissection of PROX1 positive region from HBP organoids and image of before/after dissection. 3B. Optimization of cultured system with 1) Floating, 2) Embedded into Matrigel™, 3) Embedded into Matrigel™ and cultured with Transwell™ from D13, 4). Dissected, embedded into Matrigel™, and cultured with Transwell™ from D13. […] 3C. Morphogenesis of boundary organoids through 2 days from Day 13. 3D. Morphogenetical change of PROX1 dissected tissue from boundary organoids through 30 days of air-liquid interface cultured system. 3E. Stereomicroscopic image of Day 37 organoids. 3F. Boundary organoid has tdTomato expressing hepatobiliary tissues branched out for putative pancreatic domains, similar to cultured mouse E10.5 derived hepato-biliary-pancreas. […]
To determine whether longer-term culture can produce more mature tissue, organoids were cultured until D90. […] Furthermore, the immunofluorescent staining detected the expression of the pancreas marker PDX1 and NGN3, the liver marker PROX1, and the bile duct markers CK19 and SOX9 in the organoids (FIG. 3H). […] Given the Cholecystokinin A Receptor (CCKAR) expression in the organoids (FIG. 3N), organoids were exposed to CCK and the pancreatic secretory function was analyzed with an amylase Enzyme-linked immune sorbent assay (ELISA). […]
A general note: In an ELISA, binding on a coated surface is turned into a signal by an enzyme label.

Entries after “also recorded” stand apart in the source; their conditions may differ.

Regarding `CC1(C)CC=C(C#Cc2ccccc2)c2cc(/C=C/c3ccc(C(=O)O)cc3)ccc21` [BMS493], the “PROX1 expressing cells (GFP area)” value in experiment [1] is given as “significant inhibition”. In addition, the “protein-level induction of HHEX and PDX1 at boundary” value in the experiment with posterior gut spheroid was “suppressed; also recorded: inhibited”. Moreover, in the experiment with bAP organoids, the “gene expression of HHEX” value is given as “strongly suppressed” and the “gene expression of PDX1” value is reported as “strongly suppressed”.
As to cholecystokinin [CCK], the “amylase secretion in supernatants (ELISA)” value in experiment [2] (CCK treated vs untreated controls, 3 days-CCK, FIG. 3P) was “increased”. Further, the “ductal structures response to CCK” value in experiment [2] (on the following day, FIG. 3O) is listed as “constricted”.
